Reference: ChEMBL document CHEMBL1914455, “A dual fluorinated and iodinated radiotracer for PET and SPECT imaging of β-amyloid plaques in the brain” (Bioorg Med Chem Lett, 2011)
Blank lines part the entries; values can stand above or below the compound they belong to. Active and inactive are the calls of the source. The rule behind the calls is not given here.

Tests used:
Blood [1] = experiment: Biodistribution in ddY mouse blood assessed per gram of tissue at 0.2 to 0.4 uCi, iv after 60 mins; assay type: ADME, organism-based; conditions: in vivo, 1 h
Blood [2] = experiment: Biodistribution in ddY mouse blood assessed per gram of tissue at 0.2 to 0.4 uCi, iv after 10 mins; assay type: ADME, organism-based; conditions: in vivo
Blood [3] = experiment: Biodistribution in ddY mouse blood assessed per gram of tissue at 0.2 to 0.4 uCi, iv after 30 mins; assay type: ADME, organism-based; conditions: in vivo, 0.5 h
Blood [4] = experiment: Biodistribution in ddY mouse blood assessed per gram of tissue at 0.2 to 0.4 uCi, iv after 2 mins; assay type: ADME, organism-based; conditions: in vivo
Brain [5] = experiment: Biodistribution in ddY mouse brain assessed per gram of tissue at 0.2 to 0.4 uCi, iv after 2 mins; assay type: ADME, organism-based; conditions: in vivo
Brain [6] = experiment: Biodistribution in ddY mouse brain assessed per gram of tissue at 0.2 to 0.4 uCi, iv after 10 mins; assay type: ADME, organism-based; conditions: in vivo
Brain [7] = experiment: Biodistribution in ddY mouse brain assessed per gram of tissue at 0.2 to 0.4 uCi, iv after 30 mins; assay type: ADME, organism-based; conditions: in vivo, 0.5 h
Brain [8] = experiment: Biodistribution in ddY mouse brain assessed per gram of tissue at 0.2 to 0.4 uCi, iv after 60 mins; assay type: ADME, organism-based; conditions: in vivo, 1 h
Bone [9] = experiment: Biodistribution in ddY mouse bone assessed per gram of tissue at 0.2 to 0.4 uCi, iv after 2 mins; assay type: ADME, organism-based, Bone element; conditions: in vivo
Bone [10] = experiment: Biodistribution in ddY mouse bone assessed per gram of tissue at 0.2 to 0.4 uCi, iv after 10 mins; assay type: ADME, organism-based, Bone element; conditions: in vivo
Bone [11] = experiment: Biodistribution in ddY mouse bone assessed per gram of tissue at 0.2 to 0.4 uCi, iv after 30 mins; assay type: ADME, organism-based, Bone element; conditions: in vivo, 0.5 h
Bone [12] = experiment: Biodistribution in ddY mouse bone assessed per gram of tissue at 0.2 to 0.4 uCi, iv after 60 mins; assay type: ADME, organism-based, Bone element; conditions: in vivo, 1 h
Brain [13] = experiment: Drug elimination from ddY mouse brain assessed per gram of tissue after 60 mins; assay type: ADME, organism-based; conditions: in vivo, 1 h
[14] = biological target: Amyloid-beta precursor protein (Homo sapiens) (UniProt P05067); experiment: Binding affinity to beta-amyloid plaque in brain of patient with Alzheimers disease at 1.6 uCi after 1 hr by autoradiography; assay type: tissue-based; conditions: tested as the 125I-labelled form
Sequence of Amyloid-beta precursor protein (Homo sapiens) (P05067 whole entry): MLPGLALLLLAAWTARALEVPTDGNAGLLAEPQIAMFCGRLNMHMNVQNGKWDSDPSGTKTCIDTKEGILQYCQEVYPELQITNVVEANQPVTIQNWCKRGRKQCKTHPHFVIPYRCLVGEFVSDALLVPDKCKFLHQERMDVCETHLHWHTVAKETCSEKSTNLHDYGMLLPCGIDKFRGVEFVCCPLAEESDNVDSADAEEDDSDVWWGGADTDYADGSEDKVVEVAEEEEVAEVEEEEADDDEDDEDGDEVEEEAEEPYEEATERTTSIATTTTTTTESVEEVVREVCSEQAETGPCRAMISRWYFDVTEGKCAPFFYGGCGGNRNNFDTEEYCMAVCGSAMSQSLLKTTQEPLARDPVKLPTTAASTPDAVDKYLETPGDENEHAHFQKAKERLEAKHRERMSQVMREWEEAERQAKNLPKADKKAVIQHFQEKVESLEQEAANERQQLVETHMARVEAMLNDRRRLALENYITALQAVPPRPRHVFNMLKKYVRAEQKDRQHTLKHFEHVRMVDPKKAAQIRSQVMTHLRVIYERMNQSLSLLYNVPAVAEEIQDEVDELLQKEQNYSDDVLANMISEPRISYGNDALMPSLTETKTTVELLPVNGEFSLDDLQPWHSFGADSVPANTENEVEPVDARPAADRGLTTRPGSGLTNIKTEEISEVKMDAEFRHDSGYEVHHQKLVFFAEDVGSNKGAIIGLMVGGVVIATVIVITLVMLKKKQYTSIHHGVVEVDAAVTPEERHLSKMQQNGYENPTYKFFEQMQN

[15] = biological target: Amyloid-beta precursor protein (Homo sapiens) (UniProt P05067); experiment: Binding affinity to beta-amyloid plaque in normal human brain sections at 1.6 uCi after 1 hr by autoradiography; conditions: tested as the 125I-labelled form
Mus musculus [16] = species: Mus musculus; experiment: Binding affinity to amyloid beta (1 to 42) in wild type mouse brain sections by neuropathological staining method; assay type: tissue-based
Mus musculus [17] = species: Mus musculus; experiment: Binding affinity to amyloid beta (1 to 42) in Tg2576 mouse brain sections by neuropathological staining method; assay type: tissue-based
[18] = Displacement of [125I]IMPY from amyloid beta (1 to 42) after 3 hrs by gamma counting
Liver [19] = experiment: Biodistribution in ddY mouse liver assessed per gram of tissue at 0.2 to 0.4 uCi, iv after 2 mins; assay type: ADME, organism-based; conditions: in vivo
Liver [20] = experiment: Biodistribution in ddY mouse liver assessed per gram of tissue at 0.2 to 0.4 uCi, iv after 10 mins; assay type: ADME, organism-based; conditions: in vivo
Liver [21] = experiment: Biodistribution in ddY mouse liver assessed per gram of tissue at 0.2 to 0.4 uCi, iv after 30 mins; assay type: ADME, organism-based; conditions: in vivo, 0.5 h
Liver [22] = experiment: Biodistribution in ddY mouse liver assessed per gram of tissue at 0.2 to 0.4 uCi, iv after 60 mins; assay type: ADME, organism-based; conditions: in vivo, 1 h
Kidney [23] = experiment: Biodistribution in ddY mouse kidney assessed per gram of tissue at 0.2 to 0.4 uCi, iv after 2 mins; assay type: ADME, organism-based; conditions: in vivo
Kidney [24] = experiment: Biodistribution in ddY mouse kidney assessed per gram of tissue at 0.2 to 0.4 uCi, iv after 10 mins; assay type: ADME, organism-based; conditions: in vivo
Kidney [25] = experiment: Biodistribution in ddY mouse kidney assessed per gram of tissue at 0.2 to 0.4 uCi, iv after 30 mins; assay type: ADME, organism-based; conditions: in vivo, 0.5 h
Kidney [26] = experiment: Biodistribution in ddY mouse kidney assessed per gram of tissue at 0.2 to 0.4 uCi, iv after 60 mins; assay type: ADME, organism-based; conditions: in vivo, 1 h
Intestine [27] = experiment: Biodistribution in ddY mouse intestine assessed per gram of tissue at 0.2 to 0.4 uCi, iv after 2 mins; assay type: ADME, organism-based; conditions: in vivo
Intestine [28] = experiment: Biodistribution in ddY mouse intestine assessed per gram of tissue at 0.2 to 0.4 uCi, iv after 10 mins; assay type: ADME, organism-based; conditions: in vivo
Intestine [29] = experiment: Biodistribution in ddY mouse intestine assessed per gram of tissue at 0.2 to 0.4 uCi, iv after 30 mins; assay type: ADME, organism-based; conditions: in vivo, 0.5 h
Intestine [30] = experiment: Biodistribution in ddY mouse intestine assessed per gram of tissue at 0.2 to 0.4 uCi, iv after 60 mins; assay type: ADME, organism-based; conditions: in vivo, 1 h
Spleen [31] = experiment: Biodistribution in ddY mouse spleen assessed per gram of tissue at 0.2 to 0.4 uCi, iv after 2 mins; assay type: ADME, organism-based; conditions: in vivo
Spleen [32] = experiment: Biodistribution in ddY mouse spleen assessed per gram of tissue at 0.2 to 0.4 uCi, iv after 10 mins; assay type: ADME, organism-based; conditions: in vivo
Spleen [33] = experiment: Biodistribution in ddY mouse spleen assessed per gram of tissue at 0.2 to 0.4 uCi, iv after 30 mins; assay type: ADME, organism-based; conditions: in vivo, 0.5 h
Spleen [34] = experiment: Biodistribution in ddY mouse spleen assessed per gram of tissue at 0.2 to 0.4 uCi, iv after 60 mins; assay type: ADME, organism-based; conditions: in vivo, 1 h
Pancreas [35] = experiment: Biodistribution in ddY mouse pancreas assessed per gram of tissue at 0.2 to 0.4 uCi, iv after 2 mins; assay type: ADME, organism-based; conditions: in vivo
Pancreas [36] = experiment: Biodistribution in ddY mouse pancreas assessed per gram of tissue at 0.2 to 0.4 uCi, iv after 10 mins; assay type: ADME, organism-based; conditions: in vivo
Pancreas [37] = experiment: Biodistribution in ddY mouse pancreas assessed per gram of tissue at 0.2 to 0.4 uCi, iv after 30 mins; assay type: ADME, organism-based; conditions: in vivo, 0.5 h
Pancreas [38] = experiment: Biodistribution in ddY mouse pancreas assessed per gram of tissue at 0.2 to 0.4 uCi, iv after 60 mins; assay type: ADME, organism-based; conditions: in vivo, 1 h
Heart [39] = experiment: Biodistribution in ddY mouse heart assessed per gram of tissue at 0.2 to 0.4 uCi, iv after 2 mins; assay type: ADME, organism-based; conditions: in vivo
Heart [40] = experiment: Biodistribution in ddY mouse heart assessed per gram of tissue at 0.2 to 0.4 uCi, iv after 10 mins; assay type: ADME, organism-based; conditions: in vivo
Heart [41] = experiment: Biodistribution in ddY mouse heart assessed per gram of tissue at 0.2 to 0.4 uCi, iv after 30 mins; assay type: ADME, organism-based; conditions: in vivo, 0.5 h
Heart [42] = experiment: Biodistribution in ddY mouse heart assessed per gram of tissue at 0.2 to 0.4 uCi, iv after 60 mins; assay type: ADME, organism-based; conditions: in vivo, 1 h
Stomach [43] = experiment: Biodistribution in ddY mouse stomach assessed per gram of tissue at 0.2 to 0.4 uCi, iv after 2 mins; assay type: ADME, organism-based; conditions: in vivo
Stomach [44] = experiment: Biodistribution in ddY mouse stomach assessed per gram of tissue at 0.2 to 0.4 uCi, iv after 10 mins; assay type: ADME, organism-based; conditions: in vivo
Stomach [45] = experiment: Biodistribution in ddY mouse stomach assessed per gram of tissue at 0.2 to 0.4 uCi, iv after 30 mins; assay type: ADME, organism-based; conditions: in vivo, 0.5 h
Stomach [46] = experiment: Biodistribution in ddY mouse stomach assessed per gram of tissue at 0.2 to 0.4 uCi, iv after 60 mins; assay type: ADME, organism-based; conditions: in vivo, 1 h
[47] = Octanol-water partition coefficient, log P of the compound at pH 7.4; assay type: physicochemical

Drug uptake (Blood [1]): 2.61 %ID | Drug uptake (Blood [2]): 2.84 %ID | Drug uptake (Blood [3]): 2.68 %ID | Drug uptake (Blood [4]): 5.72 %ID | Drug uptake (Brain [5]): 3.66 %ID | Drug uptake (Brain [6]): 2.37 %ID | Drug uptake (Brain [7]): 1.77 %ID | Drug uptake (Brain [8]): 1.75 %ID | Drug uptake (Bone [9]): 2.03 %ID | Drug uptake (Bone [10]): 2.13 %ID | Drug uptake (Bone [11]): 3.45 %ID | Drug uptake (Bone [12]): 3.42 %ID | CL (Brain [13]): 1.75 %ID
Structure (SMILES): O=C1/C(=C/c2ccc(OCC[18F])cc2)Oc2ccc(I)cc21

Activity [14]: Active | Activity [15]: inactive | Activity (Mus musculus [16]): inactive | Activity (Mus musculus [17]): Active | Activity [18]: Dose-dependent effect | Ki [18]: 6.81 nM
Structure (SMILES): O=C1/C(=C/c2ccc(OCCF)cc2)Oc2ccc(I)cc21

Drug uptake (Blood [1]): 1.29 %ID | Drug uptake (Blood [2]): 3.13 %ID | Drug uptake (Blood [3]): 1.94 %ID | Drug uptake (Blood [4]): 6.7 %ID | Drug uptake (Liver [19]): 17.06 %ID | Drug uptake (Liver [20]): 16.5 %ID | Drug uptake (Liver [21]): 12.44 %ID | Drug uptake (Liver [22]): 10.96 %ID | Drug uptake (Kidney [23]): 6.96 %ID | Drug uptake (Kidney [24]): 7.53 %ID | Drug uptake (Kidney [25]): 5.49 %ID | Drug uptake (Kidney [26]): 5.22 %ID | Drug uptake (Intestine [27]): 2.02 %ID | Drug uptake (Intestine [28]): 6.53 %ID | Drug uptake (Intestine [29]): 12.35 %ID | Drug uptake (Intestine [30]): 15.74 %ID | Drug uptake (Spleen [31]): 3.74 %ID | Drug uptake (Spleen [32]): 4.33 %ID | Drug uptake (Spleen [33]): 3.61 %ID | Drug uptake (Spleen [34]): 2.37 %ID | Drug uptake (Pancreas [35]): 3.44 %ID | Drug uptake (Pancreas [36]): 1.33 %ID | Drug uptake (Pancreas [37]): 0.8 %ID | Drug uptake (Pancreas [38]): 1.35 %ID | Drug uptake (Heart [39]): 4.9 %ID | Drug uptake (Heart [40]): 1.95 %ID | Drug uptake (Heart [41]): 1.54 %ID | Drug uptake (Heart [42]): 1.19 %ID | Drug uptake (Stomach [43]): 0.61 %ID | Drug uptake (Stomach [44]): 1.46 %ID | Drug uptake (Stomach [45]): 0.79 %ID | Drug uptake (Stomach [46]): 0.89 %ID | Drug uptake (Brain [5]): 2.34 %ID | Drug uptake (Brain [6]): 0.84 %ID | Drug uptake (Brain [7]): 0.19 %ID | Drug uptake (Brain [8]): 0.19 %ID | logD [47]: 2.45 | CL (Brain [13]): 0.19 %ID
Structure (SMILES): O=C1/C(=C/c2ccc(OCCF)cc2)Oc2ccc([125I])cc21
